Data on 43 compounds can be found in US20230142739A1, “PROTEIN-PROTEIN INTERACTION STABILIZERS” (The Regents of the University of California, priority 2020, published 2023).

Test [1] concerns the target T1, p65_45/14-3-3γ (Homo sapiens, UniProt P61981). The experiment in a line: Fluorescence anisotropy protein titration, p65_45 peptide/14-3-3γ in presence of 1 mM fragment. Format: binding. The arrangement: The full length 14-3-3γ was dialysis against 25 mM HEPES pH7.5; made in house; host or cells: E. coli BL21(DE3), pPROEX HTb. The method, then:
SF: the fold-change of apparent KD in comparison to a DMSO control.
During compound titrations, the 14-3-3γ concentration was constant 50 μM and the compound was titrated in a 1:1 dilution series. In protein titrations, 14-3-3γ was titrated in a 1:1 dilution series in the presence of 1 mM compound. The plates (Corning 384 well plates, black, round bottom, low binding) were incubated for 3 h RT prior to fluorescence anisotropy (FA) measurements with the Tecan Infinite 500 plate reader (FITC dye: excitation 485 nm, emission 535 nm). Dilution series were prepared in FA buffer (10 mM HEPES pH 7.4, 150 mM NaCl, 0.1% Tween20). All measurements were performed once.
A general note: In fluorescence polarisation assays a small probe gives low polarisation when free and higher when bound to something large.

The target of a further test is ER (Homo sapiens, UniProt P31947). The experiment in a line: MS (KD,app), ER. Format: binding. As to conditions: 24 hr incubation.
ER, sequence (P31947 whole entry, other chains not shown, the tested form may be a part): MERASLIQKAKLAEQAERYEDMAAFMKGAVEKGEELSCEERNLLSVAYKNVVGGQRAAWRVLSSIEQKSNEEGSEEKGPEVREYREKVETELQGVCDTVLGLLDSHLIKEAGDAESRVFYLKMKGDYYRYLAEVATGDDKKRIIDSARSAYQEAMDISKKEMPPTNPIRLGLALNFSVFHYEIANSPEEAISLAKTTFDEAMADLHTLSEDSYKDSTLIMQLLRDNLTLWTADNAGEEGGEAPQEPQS
Test [2] concerns the target T1, p65_45/14-3-3γ. Description: Fluorescence anisotropy compound titration, p65_45 peptide with 50 μM 14-3-3γ (CC50). The method, then: Biochemical assessment of fragments 1-7 used a fluorescence anisotropy (FA) assay. […] The subsequent outputs are herein term termed ‘half maximal complex concentration (CC50)’. […] We sought to develop a structure-activity relationship (SAR) based upon these four chemotypes with the specific goal to develop high affinity molecular glues which orthosterically engage with p65 and stabilize the 14-3-3/p65 complex.
During compound titrations, the 14-3-3γ concentration was constant 50 μM and the compound was titrated in a 1:1 dilution series. In protein titrations, 14-3-3γ was titrated in a 1:1 dilution series in the presence of 1 mM compound. […] All measurements were performed once.

A further test concerns the target T2, Pin1_72/14-3-3γ (Homo sapiens, UniProt P61981+Q13526).
T2 construct: the full length 14-3-3γ was dialysis against 25 mM HEPES pH 7.5; made in house; host or cells: E. coli BL21(DE3), pPROEX HTb
Description: Fluorescence anisotropy protein titration, Pin1_72/14-3-3γ at constant compound. As to conditions: based on internal DMSO control and 100 μM fragment. Format: binding. An excerpt: Inspired by the binding poses of 3 and 9 we combined their structural features to improve stabilization. […] In case of complex stabilization, a left shift of apparent KD values is expected, here described as stabilization factors (SF).
Fluorescence Anisotropy (FA) Assays.

Where [3] appears, read: fold-change of apparent KD in comparison to a DMSO control, 1 mM fragment.
Setting [4] is: Table 9, fold-change of apparent KD vs DMSO control.

Marks after values point to notes of the source that are not given here.

T1 sequence (P61981 whole entry, other chains not shown, the tested form may be a part): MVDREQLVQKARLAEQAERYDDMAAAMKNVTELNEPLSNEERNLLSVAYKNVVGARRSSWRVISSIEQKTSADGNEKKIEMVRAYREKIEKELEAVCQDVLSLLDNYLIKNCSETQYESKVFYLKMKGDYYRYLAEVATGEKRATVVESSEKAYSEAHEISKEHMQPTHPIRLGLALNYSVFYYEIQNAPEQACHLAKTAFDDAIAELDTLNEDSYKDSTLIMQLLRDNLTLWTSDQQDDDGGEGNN
T2 sequence (P61981 whole entry, other chains not shown): as the sequence (P61981 whole entry, other chains not shown, the tested form may be a part) above

For the compound `COCCN1CCN(S(=O)(=O)c2ccc(C=O)cc2)CC1` [23l, 4-{[4-(2-methoxyethyl)piperazin-1-yl]sulfonyl}benzaldehyde], the SF on p65_45/14-3-3γ [1] (setting [3]) is recorded as 4.5. On the same count and under the same terms, the result for `CN(C1CCOCC1)S(=O)(=O)c1ccc(C=O)cc1` [23x, 4-formyl-N-methyl-N-(oxan-4-yl)benzene-1-sulfonamide] reads 5.9. The compound `O=C(CCl)CCC1CCN(C(=O)C2(Nc3ccc(Cl)cc3)CCOCC2)CC1` displayed a Kd at ER of 0.145 µM. Regarding `C[C@H]1CCCN1S(=O)(=O)c1ccc(C=O)cc1` [23e, 4-{[(2S)-2-methylpyrrolidin-1-yl]sulfonyl}benzaldehyde], on p65_45/14-3-3γ [1] (setting [3]), the SF is 20.6. In the case of `O=Cc1ccc(S(=O)(=O)N2CCOCC2)cc1` [23u, 4-(morpholine-4-sulfonyl)benzaldehyde], at p65_45/14-3-3γ [1] (setting [3]), the SF is reported as 6.3. On the same count and under the same terms, with `CCN1CCN(S(=O)(=O)c2ccc(C=O)cc2)CC1` [23i, 4-[(4-ethylpiperazin-1-yl)sulfonyl]benzaldehyde] the figure was 3.3; with `CN(C)S(=O)(=O)c1ccc(C=O)cc1` [23c, 4-formyl-N,N-dimethylbenzene-1-sulfonamide], 1.8. Regarding `O=Cc1ccc([N+](=O)[O-])c(N2CCOCC2)c1` [13q, 3-(morpholin-4-yl)-4-nitrobenzaldehyde], the “activity in FA compound titration” value at p65_45/14-3-3γ [2] is “did not elicit significant ternary complex formation”. With `O=Cc1ccc(S(=O)(=O)N2CCOc3cc(Cl)ccc32)cc1` [24h, 4-[(7-chloro-3,4-dihydro-2H-1,4-benzoxazin-4-yl)sulfonyl]benzaldehyde], the response on p65_45/14-3-3γ [2] was half-maximal at 250 µM (EC50). In addition, the SF on p65_45/14-3-3γ [1] (setting [4]) is listed as 28. Consider `O=Cc1ccc(-n2ccnc2-c2ccccc2)cc1O` [compound 19, 2-hydroxy-4-(2-phenyl-1H-imidazol-1-yl)benzaldehyde], for which the “SF (fold stabilization)” value on Pin1_72/14-3-3γ is recorded as 4.9. Turning to `COc1ccc2c(c1)OCCN2S(=O)(=O)c1ccc(C=O)cc1` [24i, 4-[(7-methoxy-3,4-dihydro-2H-1,4-benzoxazin-4-yl)sulfonyl]benzaldehyde], the EC50 at p65_45/14-3-3γ [2] was found to be 110 µM. `COC1CCCN(c2cc(C=O)ccc2[N+](=O)[O-])C1` (centres unmarked) [13e, 3-(3-methoxypiperidin-1-yl)-4-nitrobenzaldehyde]: on p65_45/14-3-3γ [2], the “activity in FA compound titration” value is recorded as “did not elicit significant ternary complex formation”.

`Cn1ccc(NS(=O)(=O)c2ccc(C=O)cc2)n1` [23b, 4-formyl-N-(1-methyl-1H-pyrazol-3-yl)benzene-1-sulfonamide]: the SF on p65_45/14-3-3γ [1] (setting [3]) came to 1.5.

With `O=C(CCl)NCCCC1CCN(C(=O)C2(Nc3ccc(Cl)cc3)CCOCC2)CC1`, the Kd at ER was less than 0.1 µM. Take `O=Cc1ccc([N+](=O)[O-])c(N2CCC(O)CC2)c1` [13f, 3-(4-hydroxypiperidin-1-yl)-4-nitrobenzaldehyde]: the “activity in FA compound titration” value at p65_45/14-3-3γ [2] is “did not elicit significant ternary complex formation”. As to `O=Cc1ccc(S(=O)(=O)N2CCC(N3CCCC3)CC2)cc1` [23m, 4-{[4-(pyrrolidin-1-yl)piperidin-1-yl]sulfonyl}benzaldehyde], the SF on p65_45/14-3-3γ [1] (setting [3]) amounted to 3.5.

For `COC1CCCN(S(=O)(=O)c2ccc(C=O)cc2)C1` (centres unmarked) [23r, 4-[(3-methoxypiperidin-1-yl)sulfonyl]benzaldehyde], on p65_45/14-3-3γ [1] (setting [3]), the SF stood at 7.5. As to `CC1CCc2ccccc2N1S(=O)(=O)c1ccc(C=O)cc1` (racemic) [24b, rac-4-[(2-methyl-1,2,3,4-tetrahydroquinolin-1-yl)sulfonyl]benzaldehyde], the response at p65_45/14-3-3γ [2] was half-maximal at 310 µM (EC50). Further, at p65_45/14-3-3γ [1] (setting [4]), the SF is on record as 36. Regarding `CN1CCCN(S(=O)(=O)c2ccc(C=O)cc2)CC1` [23g, 4-[(4-methyl-1,4-diazepan-1-yl)sulfonyl]benzaldehyde], the SF on p65_45/14-3-3γ [1] (setting [3]) was found to be 4.0. The same measure, in the same setting: with `COC1CN(S(=O)(=O)c2ccc(C=O)cc2)C1` [23d, 4-[(3-methoxyazetidin-1-yl)sulfonyl]benzaldehyde] the figure was 5.1. Turning to `O=Cc1ccc(S(=O)(=O)N2CCOc3ccccc32)cc1` [24f, 4-(3,4-dihydro-2H-1,4-benzoxazine-4-sulfonyl)benzaldehyde], the midpoint of the response on p65_45/14-3-3γ [2], the EC50, lay at 220 µM. Also, the SF on p65_45/14-3-3γ [1] (setting [4]) was 23.

`O=Cc1ccc([N+](=O)[O-])c(N2CCCC(O)C2)c1` (centres unmarked) [13l, 3-(3-hydroxypiperidin-1-yl)-4-nitrobenzaldehyde]: the “activity in FA compound titration” value at p65_45/14-3-3γ [2] was “did not elicit significant ternary complex formation”. Turning to `O=Cc1ccc(-n2ccnc2-c2ccccc2)cc1C(F)(F)F` [compound 14, 4-(2-phenyl-1H-imidazol-1-yl)-2-(trifluoromethyl)benzaldehyde], the “SF (fold stabilization)” value at Pin1_72/14-3-3γ is given as 1.2. As for `COc1ccc2c(c1)CCCN2S(=O)(=O)c1ccc(C=O)cc1` [24e, 4-[(6-methoxy-1,2,3,4-tetrahydroquinolin-1-yl)sulfonyl]benzaldehyde], the midpoint of the response at p65_45/14-3-3γ [2], the EC50, lay at 120 µM. In addition, the SF at p65_45/14-3-3γ [1] (setting [4]) turned out to be 34.

Consider `CN(C1CCCCC1)S(=O)(=O)c1ccc(C=O)cc1` [23w, N-cyclohexyl-4-formyl-N-methylbenzene-1-sulfonamide], for which the SF on p65_45/14-3-3γ [1] (setting [3]) was 12.7. Take `C=CS(=O)(=O)NCC1CCN(C(=O)C2(Nc3ccc(Cl)cc3)CCOCC2)CC1`: the Kd at ER stood at 0.125 µM.

As to `CN(C)C1CCN(S(=O)(=O)c2ccc(C=O)cc2)CC1` [23n, 4-{[4-(dimethylamino)piperidin-1-yl]sulfonyl}benzaldehyde], the SF at p65_45/14-3-3γ [1] (setting [3]) is recorded as 3.5. The compound `O=Cc1ccc(S(=O)(=O)N2CCCc3cc(Cl)ccc32)cc1` [24d, 4-[(6-chloro-1,2,3,4-tetrahydroquinolin-1-yl)sulfonyl]benzaldehyde] registered an EC50 at p65_45/14-3-3γ [2] of 160 µM. Moreover, the SF at p65_45/14-3-3γ [1] (setting [4]) is recorded as 36. Turning to `O=Cc1ccc(-n2cncc2[C@H]2CCCN2CC2CC2)nc1` [16e, 6-{5-[(2R)-1-(cyclopropylmethyl)pyrrolidin-2-yl]-1H-imidazol-1-yl}pyridine-3-carbaldehyde], the “activity in FA compound titration” value at p65_45/14-3-3γ [2] is “induced an increase in anisotropy”.

Regarding `CN1CCN(S(=O)(=O)c2ccc(C=O)cc2)CC1` [23h, 4-[(4-methylpiperazin-1-yl)sulfonyl]benzaldehyde], the SF at p65_45/14-3-3γ [1] (setting [3]) came out at 3.3.

Take `O=Cc1ccc(S(=O)(=O)N2CCC(O)CC2)cc1` [23s, 4-[(4-hydroxypiperidin-1-yl)sulfonyl]benzaldehyde]: the SF at p65_45/14-3-3γ [1] (setting [3]) amounted to 7.2. Compound `O=C(CCl)NCC1CCN(S(=O)(=O)c2ccc(Cl)cc2)CC1` returned a Kd on ER of 7.15 µM.

On to `O=Cc1ccc(S(=O)(=O)N2CCC(CNC(=O)CCl)CC2)cc1`, for which the Kd on ER was found to be 150 µM.

For the compound `CC(C)N1CCN(S(=O)(=O)c2ccc(C=O)cc2)CC1` [23j, 4-{[4-(propan-2-yl)piperazin-1-yl]sulfonyl}benzaldehyde], at p65_45/14-3-3γ [1] (setting [3]), the SF was 5.5. The compound `O=Cc1ccc(S(=O)(=O)N2CCc3ccccc32)cc1` [24a, 4-(2,3-dihydro-1H-indole-1-sulfonyl)benzaldehyde] gave a half-maximal effective concentration (EC50) at p65_45/14-3-3γ [2] of 220 µM. The SF at p65_45/14-3-3γ [1] (setting [4]) was determined as 30. Turning to `COC1CCN(S(=O)(=O)c2ccc(C=O)cc2)CC1` [23t, 4-[(4-methoxypiperidin-1-yl)sulfonyl]benzaldehyde], the SF on p65_45/14-3-3γ [1] (setting [3]) stood at 16.5. Regarding `CC(=O)N1CCN(S(=O)(=O)c2ccc(C=O)cc2)CC1` [23o, 4-[(4-acetylpiperazin-1-yl)sulfonyl]benzaldehyde], the SF at p65_45/14-3-3γ [1] (setting [3]) came to 4.5.

For `O=Cc1ccc(S(=O)(=O)N2CCCC(O)C2)cc1` (centres unmarked) [23q, 4-[(3-hydroxypiperidin-1-yl)sulfonyl]benzaldehyde], the SF on p65_45/14-3-3γ [1] (setting [3]) amounted to 10.3.

With `O=Cc1ccc(-n2ccnc2Br)nc1` [16d, 6-(2-bromo-1H-imidazol-1-yl)pyridine-3-carbaldehyde], the “activity in FA compound titration” value on p65_45/14-3-3γ [2] is given as “induced an increase in anisotropy”.

On to `O=Cc1ccc(S(=O)(=O)N2CCc3ccccc3C2)cc1` [23y, 4-(1,2,3,4-tetrahydroisoquinoline-2-sulfonyl)benzaldehyde], for which the midpoint of the response on p65_45/14-3-3γ [2], the EC50, lay at 180 µM. In addition, the SF on p65_45/14-3-3γ [1] (setting [4]) is recorded as 0.7^a; at p65_45/14-3-3γ [1] (setting [3]), 0.7.

For `O=Cc1ccc(S(=O)(=O)N2CCNC(=O)C2)cc1` [23p, 4-[(3-oxopiperazin-1-yl)sulfonyl]benzaldehyde], at p65_45/14-3-3γ [1] (setting [3]), the SF is recorded as 2.2. The compound `O=Cc1ccc(S(=O)(=O)N2CCCc3cc(F)ccc32)cc1` [24c, 4-[(6-fluoro-1,2,3,4-tetrahydroquinolin-1-yl)sulfonyl]benzaldehyde] registered an EC50 at p65_45/14-3-3γ [2] of 140 µM. For the same compound, on p65_45/14-3-3γ [1] (setting [4]), the SF was determined as 56. For `O=Cc1ccc(S(=O)(=O)N2CCOc3ccc(F)cc32)cc1` [24g, 4-[(6-fluoro-3,4-dihydro-2H-1,4-benzoxazin-4-yl)sulfonyl]benzaldehyde], on p65_45/14-3-3γ [2], the half-maximal effective concentration (EC50) turned out to be 310 µM. On p65_45/14-3-3γ [1] (setting [4]), the SF is listed as 22.

What is called EC50 is the concentration at which the effect is half-maximal. Higher therefore signals a less potent agent.
